Measurements: EP4692090A1 (Shanghai Fosun Pharmaceutical (Group) Co., Ltd., priority 2023, dated 2024)
Where two headings read alike, the source gives them in different places.

Legend:
[1] = molecular target: T1, ATR kinase (Homo sapiens, UniProt Q13535); test: Inhibitory effect on ATR kinase activity (Caliper mobility shift, FAM-labeled RAD17 peptide substrate); format: biochemical
T1 construct: purchased Eurofins 14-953
Method: Test Example 1: Inhibitory effect of the compounds of the present disclosure on ATR kinase activity
Test compounds to be tested were serially diluted with DMSO (maximum concentration 1 µM, 10 concentrations with 3-fold serial dilution) and added to the wells of a 384-well reaction plate (Corning, #4512). 1 nM ATR kinase (Eurofins, #14-953), 5 mM substrate (FAM-labeled RAD17 peptide, FAM-ASELPASQPQPFSAKKK), 5 mM ATP and the compounds with corresponding concentrations reacted in a kinase reaction solution (50 mM HEPES, pH 7.5; 0.0015% Brij-35; 10 mM MnCl2, total volume of 20 µL) at 28°C for 3 hours. The reaction was terminated by adding 30 µL of stop solution (100 mM HEPES, pH 7.5; 0.015% Brij-35; 0.2% Coating Reagent #3, PerkinElmer; 50 mM EDTA). The reaction plate was placed on a Caliper instrument (PerkinElmer) for testing. The relative inhibitory activity of each compound concentration group was calculated using the following formula: % Inhibition = (Conversion rate of the blank control group without compound added - Conversion rate of the test compound group) / (Conversion rate of the blank control group - […]). The IC50 values were calculated using GraphPad analysis and fitted. […] Table 1. Inhibitory effect (IC50) of compounds on ATR kinase activity.

[2] = tested on: LoVo cells; test: LoVo cell proliferation assay (CellTiter-Glo); format: cell-based; details: maximum concentration 10 µM, 9 concentrations
Method: Test Example 2: LoVo cell proliferation assay
LoVo (ATCC, #CRL-229) cells in logarithmic growth phase were digested, counted, and plated into 96-well cell culture plates at 2,000 cells per well. The plates containing cells were incubated overnight at 37°C in a 5% CO2 incubator, and then test compounds with 3-fold gradient dilutions (maximum concentration: 10 µM, 9 concentrations) were added. DMSO was used as a blank control. After the LoVo cells containing the compounds or DMSO were incubated for an additional 5 days, an equal volume of CellTiter-Glo reagent (Promega, #7573) was added. After incubation at room temperature for 30 minutes, chemiluminescence was read using an Envision 2105 (PerkinElmer). The cell proliferation inhibition rate (%) for wells treated with each concentration of the compounds was calculated using the following formula. Then, with compound concentration as the horizontal axis and cell proliferation inhibition rate (%) as the vertical axis, GraphPad software was used to plot the data and determine the IC50 values of the test compounds. The results are shown in Table 2, wherein the IC50 ranges are defined as follows: A: ≤ 100 nM; 1000 nM ≥ B > 100 nM; C > 1000 nM.
Cell proliferation inhibition (%) = (1 - luminescence value of compound-treated group / average luminescence value of DMSO blank control group) × 100. Table 2. Inhibitory effect of compounds on LoVo growth

[3] = 1 nM ATR kinase (Eurofins), 28°C for 3 hours, maximum concentration 1 µM, 10 concentrations, read-out: ATR kinase IC50
[4] = LoVo cells, 2,000 cells per well, 5 days incubation, CellTiter-Glo, read-out: LoVo IC50
[5] = Homo sapiens, LoVo, 120 h, LoVo cells, 2,000 cells per well, 5 days incubation, CellTiter-Glo, read-out: LoVo IC50
[6] = read-out: ATR kinase IC50, 1 nM ATR kinase (Eurofins), 28°C for 3 hours, maximum concentration 1 µM, 10 concentrations
[7] = Homo sapiens, LoVo, 120 h, read-out: LoVo IC50 (nM), LoVo cells, 2,000 cells per well, 5 days incubation, CellTiter-Glo
[8] = read-out: LoVo IC50, LoVo cells, 2,000 cells per well, 5 days incubation, CellTiter-Glo

T1 sequence (Q13535 whole entry): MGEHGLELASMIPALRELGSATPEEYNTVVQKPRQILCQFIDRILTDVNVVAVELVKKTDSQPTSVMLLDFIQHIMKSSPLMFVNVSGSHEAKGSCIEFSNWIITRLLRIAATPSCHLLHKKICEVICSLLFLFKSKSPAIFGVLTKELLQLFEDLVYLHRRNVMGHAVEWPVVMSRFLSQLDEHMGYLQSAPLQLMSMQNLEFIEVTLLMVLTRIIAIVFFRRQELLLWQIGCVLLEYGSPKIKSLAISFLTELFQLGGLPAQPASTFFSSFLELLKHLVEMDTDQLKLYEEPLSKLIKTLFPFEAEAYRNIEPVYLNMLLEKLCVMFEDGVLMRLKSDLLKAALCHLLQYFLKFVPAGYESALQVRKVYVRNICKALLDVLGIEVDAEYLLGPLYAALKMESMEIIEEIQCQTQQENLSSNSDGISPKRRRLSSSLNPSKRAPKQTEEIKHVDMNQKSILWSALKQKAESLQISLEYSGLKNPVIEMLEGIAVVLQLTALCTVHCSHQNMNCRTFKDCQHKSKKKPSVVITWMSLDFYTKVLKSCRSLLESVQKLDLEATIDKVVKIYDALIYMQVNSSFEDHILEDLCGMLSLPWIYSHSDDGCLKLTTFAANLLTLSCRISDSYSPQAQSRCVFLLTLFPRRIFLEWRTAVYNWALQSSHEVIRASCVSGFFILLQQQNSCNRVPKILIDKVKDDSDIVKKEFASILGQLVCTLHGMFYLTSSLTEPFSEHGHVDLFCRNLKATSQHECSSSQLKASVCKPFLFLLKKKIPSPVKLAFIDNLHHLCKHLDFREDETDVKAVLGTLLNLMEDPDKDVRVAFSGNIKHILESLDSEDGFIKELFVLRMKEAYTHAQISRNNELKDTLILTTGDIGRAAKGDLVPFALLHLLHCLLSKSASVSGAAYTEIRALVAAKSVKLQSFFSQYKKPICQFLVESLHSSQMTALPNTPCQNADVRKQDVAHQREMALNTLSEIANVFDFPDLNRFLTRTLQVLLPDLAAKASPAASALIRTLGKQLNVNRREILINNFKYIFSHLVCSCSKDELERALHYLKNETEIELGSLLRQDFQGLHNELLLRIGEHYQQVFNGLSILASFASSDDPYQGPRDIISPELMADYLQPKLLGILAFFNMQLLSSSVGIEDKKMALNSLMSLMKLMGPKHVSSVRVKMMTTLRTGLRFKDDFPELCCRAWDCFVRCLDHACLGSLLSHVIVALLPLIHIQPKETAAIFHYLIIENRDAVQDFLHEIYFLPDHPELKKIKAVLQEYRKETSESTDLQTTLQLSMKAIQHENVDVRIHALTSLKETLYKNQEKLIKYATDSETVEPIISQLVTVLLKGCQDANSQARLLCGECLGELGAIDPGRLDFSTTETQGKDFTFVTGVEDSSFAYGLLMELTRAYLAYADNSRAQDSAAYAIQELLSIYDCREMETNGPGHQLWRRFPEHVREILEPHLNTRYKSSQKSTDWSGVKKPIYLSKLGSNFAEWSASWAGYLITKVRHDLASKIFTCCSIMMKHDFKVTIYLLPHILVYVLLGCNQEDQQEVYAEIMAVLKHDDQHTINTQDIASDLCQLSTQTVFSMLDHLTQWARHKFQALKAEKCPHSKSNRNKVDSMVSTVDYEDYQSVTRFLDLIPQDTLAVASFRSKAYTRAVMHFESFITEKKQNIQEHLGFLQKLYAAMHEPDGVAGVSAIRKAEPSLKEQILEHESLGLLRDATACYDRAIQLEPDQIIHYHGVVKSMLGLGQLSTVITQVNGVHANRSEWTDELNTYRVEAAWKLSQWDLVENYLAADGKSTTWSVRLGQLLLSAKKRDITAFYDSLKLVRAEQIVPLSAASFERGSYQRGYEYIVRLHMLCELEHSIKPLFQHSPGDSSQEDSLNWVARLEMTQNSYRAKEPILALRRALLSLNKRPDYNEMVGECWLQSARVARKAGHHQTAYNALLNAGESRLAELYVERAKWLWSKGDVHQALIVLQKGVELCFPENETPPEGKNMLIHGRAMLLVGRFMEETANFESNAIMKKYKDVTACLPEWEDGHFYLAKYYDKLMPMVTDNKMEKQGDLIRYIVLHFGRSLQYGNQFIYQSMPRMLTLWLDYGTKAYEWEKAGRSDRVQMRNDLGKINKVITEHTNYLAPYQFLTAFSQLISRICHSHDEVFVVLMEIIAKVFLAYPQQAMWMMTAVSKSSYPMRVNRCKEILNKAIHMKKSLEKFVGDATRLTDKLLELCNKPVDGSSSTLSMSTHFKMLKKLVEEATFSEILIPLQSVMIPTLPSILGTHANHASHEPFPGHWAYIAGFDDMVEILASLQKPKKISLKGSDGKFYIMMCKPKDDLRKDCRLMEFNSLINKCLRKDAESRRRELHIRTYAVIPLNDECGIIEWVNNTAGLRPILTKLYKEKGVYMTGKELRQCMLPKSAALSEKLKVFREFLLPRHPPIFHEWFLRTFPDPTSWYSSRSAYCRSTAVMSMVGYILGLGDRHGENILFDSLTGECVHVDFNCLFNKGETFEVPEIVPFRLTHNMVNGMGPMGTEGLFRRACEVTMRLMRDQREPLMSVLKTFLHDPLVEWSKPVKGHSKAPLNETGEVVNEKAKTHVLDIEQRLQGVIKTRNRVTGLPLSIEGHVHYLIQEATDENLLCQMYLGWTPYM
T1 sequence (Q8WXE1 whole entry partner): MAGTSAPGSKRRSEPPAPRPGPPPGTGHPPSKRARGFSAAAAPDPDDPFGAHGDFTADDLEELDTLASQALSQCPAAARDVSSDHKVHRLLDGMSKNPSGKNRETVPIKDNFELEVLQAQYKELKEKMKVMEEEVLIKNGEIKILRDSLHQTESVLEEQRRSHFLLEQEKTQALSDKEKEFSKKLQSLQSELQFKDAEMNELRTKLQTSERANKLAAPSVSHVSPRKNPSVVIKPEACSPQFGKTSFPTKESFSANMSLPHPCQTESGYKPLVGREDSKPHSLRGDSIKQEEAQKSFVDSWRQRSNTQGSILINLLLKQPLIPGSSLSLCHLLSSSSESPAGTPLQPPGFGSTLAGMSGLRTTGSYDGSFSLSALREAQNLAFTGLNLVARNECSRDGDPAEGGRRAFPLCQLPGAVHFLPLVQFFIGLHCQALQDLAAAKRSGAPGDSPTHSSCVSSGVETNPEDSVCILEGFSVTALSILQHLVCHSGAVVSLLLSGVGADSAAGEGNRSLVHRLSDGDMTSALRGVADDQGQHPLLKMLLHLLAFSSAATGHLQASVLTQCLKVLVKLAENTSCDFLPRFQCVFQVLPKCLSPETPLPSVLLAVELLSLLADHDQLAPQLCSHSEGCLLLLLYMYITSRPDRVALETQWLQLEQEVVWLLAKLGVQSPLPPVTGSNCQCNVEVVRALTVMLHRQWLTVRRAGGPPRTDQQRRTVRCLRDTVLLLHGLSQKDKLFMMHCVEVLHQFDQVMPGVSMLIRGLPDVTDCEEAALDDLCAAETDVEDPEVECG

Row | IC50 [1, 3] | IC50 [2, 4] | IC50 [2, 5] | Structure (SMILES) | further results
1 | 10 to 100 nM | 100 to 1000 nM | – | C[C@@H]1COCCN1c1cc2c3c(nn(-c4cc[nH]n4)c3n1)CCN(C1CC(C(F)(F)F)C1)C2 (single isomer, unassigned) [Compound 13A] | –
2 | 100 to 1000 nM | > 1000 nM | – | C[C@@H]1COCCN1c1cc2c3c(nn(-c4cc[nH]n4)c3n1)CCN(C1CC(C(F)(F)F)C1)C2 (single isomer, unassigned) [Compound 13B] | –
3 | 10 to 100 nM | – | > 1000 nM | C[C@@H]1COCCN1c1cc2c3c(nn(-c4cc[nH]n4)c3n1)CCN(C(=O)C1CC3(C1)CC3(F)F)C2 (single isomer, unassigned) [Compound 20A] | –
4 | 10 to 100 nM | > 1000 nM | – | C[C@@H]1COCCN1c1cc2c3c(nn(-c4cc[nH]n4)c3n1)CCN(C(=O)C1CC3(C1)CC3(F)F)C2 (single isomer, unassigned) [Compound 20B] | –
5 | < 10 nM | – | < 100 nM | CC1c2cc(N3CCOC[C@H]3C)nc3c2c(nn3-c2cc[nH]n2)CCN1C1CC1 (single isomer, unassigned) [Compound 31A] | –
6 | < 10 nM | < 100 nM | – | CC1c2cc(N3CCOC[C@H]3C)nc3c2c(nn3-c2cc[nH]n2)CCN1C1CC1 (single isomer, unassigned) [Compound 31B] | –
7 | 10 to 100 nM | – | 100 to 1000 nM | CC1c2cc(N3CCOC[C@H]3C)nc3c2c(nn3-c2cc[nH]n2)CCN1C1COC1 (single isomer, unassigned) [Compound 32A] | –
8 | 10 to 100 nM | < 100 nM | – | CC1c2cc(N3CCOC[C@H]3C)nc3c2c(nn3-c2cc[nH]n2)CCN1C1COC1 (single isomer, unassigned) [Compound 32B] | –
9 | – | – | – | CC1c2cc(N3CCOC[C@H]3C)nc3c2c(nn3-c2cc[nH]n2)CCN1C(=O)C1(C(F)(F)F)CC1 (single isomer, unassigned) [Compound 33A] | IC50 [1, 6]: < 10 nM; IC50 [2, 7]: < 100 nM
10 | – | – | – | CC1c2cc(N3CCOC[C@H]3C)nc3c2c(nn3-c2cc[nH]n2)CCN1C(=O)C1(C(F)(F)F)CC1 (single isomer, unassigned) [Compound 33B] | IC50 [1, 6]: 100 to 1000 nM; IC50 [2, 8]: 100 to 1000 nM
11 | < 10 nM | – | < 100 nM | CC1c2cc(N3CCOC[C@H]3C)nc3c2c(nn3-c2cc[nH]n2)CCN1C (single isomer, unassigned) [Compound 35A] | –
12 | < 10 nM | – | 100 to 1000 nM | CC(C)N1CCc2nn(-c3cc[nH]n3)c3nc(N4CCOC[C@H]4C)cc(c23)C1C (single isomer, unassigned) [Compound 36A] | –
13 | < 10 nM | < 100 nM | – | CC(C)N1CCc2nn(-c3cc[nH]n3)c3nc(N4CCOC[C@H]4C)cc(c23)C1C (single isomer, unassigned) [Compound 36B] | –
14 | 10 to 100 nM | – | < 100 nM | CC1c2cc(N3CCOC[C@H]3C)nc3c2c(nn3-c2cc[nH]n2)CCN1S(=O)(=O)C1CC1 (single isomer, unassigned) [Compound 37A] | –
15 | < 10 nM | < 100 nM | – | CC1c2cc(N3CCOC[C@H]3C)nc3c2c(nn3-c2cc[nH]n2)CCN1S(=O)(=O)C1CC1 (single isomer, unassigned) [Compound 37B] | –
16 | < 10 nM | < 100 nM | – | CC1c2cc(N3CCOC[C@H]3C)nc3c2c(nn3-c2cc[nH]n2)CCN1S(C)(=O)=O (single isomer, unassigned) [Compound 39A] | –
17 | < 10 nM | > 1000 nM | – | CC1c2cc(N3CCOC[C@H]3C)nc3c2c(nn3-c2cc[nH]n2)CCN1S(C)(=O)=O (single isomer, unassigned) [Compound 39B] | –
18 | – | – | – | CC1c2cc(N3CCOC[C@H]3C)nc3c2c(nn3-c2cc[nH]n2)CCN1C(=O)C1(C#N)CC1 (single isomer, unassigned) [Compound 40A] | IC50 [1, 6]: < 10 nM; IC50 [2, 7]: 100 to 1000 nM

Row | IC50 [1, 3] | IC50 [2, 4] | IC50 [2, 5] | Structure (SMILES) | further results
19 | – | – | – | CC1c2cc(N3CCOC[C@H]3C)nc3c2c(nn3-c2cc[nH]n2)CCN1C(=O)C1(C#N)CC1 (single isomer, unassigned) [Compound 40B] | IC50 [1, 6]: 10 to 100 nM; IC50 [2, 8]: 100 to 1000 nM
20 | < 10 nM | – | < 100 nM | CCN1CCc2nn(-c3cc[nH]n3)c3nc(N4CCOC[C@H]4C)cc(c23)C1C (single isomer, unassigned) [Compound 41A] | –
21 | < 10 nM | < 100 nM | – | CCN1CCc2nn(-c3cc[nH]n3)c3nc(N4CCOC[C@H]4C)cc(c23)C1C (single isomer, unassigned) [Compound 41B] | –
22 | < 10 nM | – | < 100 nM | CC1c2cc(N3CCOC[C@H]3C)nc3c2c(nn3-c2cc[nH]n2)CCN1C1(C#N)CC1 (single isomer, unassigned) [Compound 42A] | –
23 | 10 to 100 nM | < 100 nM | – | CC1c2cc(N3CCOC[C@H]3C)nc3c2c(nn3-c2cc[nH]n2)CCN1C1(C#N)CC1 (single isomer, unassigned) [Compound 42B] | –
24 | 10 to 100 nM | – | 100 to 1000 nM | CC1c2cc(N3CCOC[C@H]3C)nc3c2c(nn3-c2cc[nH]n2)CCN1CC1COC1 (single isomer, unassigned) [Compound 44A] | –
25 | < 10 nM | < 100 nM | – | CC1c2cc(N3CCOC[C@H]3C)nc3c2c(nn3-c2cc[nH]n2)CCN1S(C)(=N)=O (single isomer, unassigned) [Compound 46C] | –
26 | < 10 nM | – | < 100 nM | [2H]C([2H])([2H])N1CCc2nn(-c3cc[nH]n3)c3nc(N4CCOC[C@H]4C)cc(c23)C1C (single isomer, unassigned) [Compound 47A] | –
27 | < 10 nM | < 100 nM | – | [2H]C([2H])([2H])N1CCc2nn(-c3cc[nH]n3)c3nc(N4CCOC[C@H]4C)cc(c23)C1C (single isomer, unassigned) [Compound 47B] | –
28 | 10 to 100 nM | – | 100 to 1000 nM | CCS(=O)(=O)N1CCc2nn(-c3cc[nH]n3)c3nc(N4CCOC[C@H]4C)cc(c23)C1C (single isomer, unassigned) [Compound 48A] | –
29 | < 10 nM | < 100 nM | – | CCS(=O)(=O)N1CCc2nn(-c3cc[nH]n3)c3nc(N4CCOC[C@H]4C)cc(c23)C1C (single isomer, unassigned) [Compound 48B] | –
30 | < 10 nM | – | < 100 nM | CC1c2cc(N3CCOC[C@H]3C)nc3c2c(nn3-c2cc[nH]n2)CCN1S(=O)(=O)C1(C)CC1 (single isomer, unassigned) [Compound 49A] | –
31 | 10 to 100 nM | 100 to 1000 nM | – | CC1c2cc(N3CCOC[C@H]3C)nc3c2c(nn3-c2cc[nH]n2)CCN1S(=O)(=O)C1(C)CC1 (single isomer, unassigned) [Compound 49B] | –
32 | 100 to 1000 nM | > 1000 nM | – | CC(C)C1(O)CCn2nc(-c3cc[nH]n3)c3nc(N4CCOC[C@H]4C)cc1c32 (single isomer, unassigned) [Compound 72A] | –
33 | 100 to 1000 nM | 100 to 1000 nM | – | CC(C)C1(O)CCn2nc(-c3cc[nH]n3)c3nc(N4CCOC[C@H]4C)cc1c32 (single isomer, unassigned) [Compound 72B] | –
34 | 10 to 100 nM | – | – | CC(C(N)=O)N1C(=O)CCn2nc(-c3cc[nH]n3)c3nc(N4CCOC[C@H]4C)cc1c32 (stereo partly drawn) [Compound 104, 2-(4-((R)-3-methylmorpholino)-7-oxo-2-(1H-pyrazol-3-yl)-8,9-dihydro-1,3,6,9a-tetraazabenzo[cd]azulene-6(7H)-yl)propanamide] | –
35 | – | – | – | C[C@@H]1COCCN1c1cc2c3c(nn(-c4cc[nH]n4)c3n1)CCN(C)C2=O [Compound 137, (R)-7-methyl-4-(3-methylmorpholinyl)-2-(1H-pyrazol-3-yl)-2,7,8,9-tetrahydro-6H-1,2,3,7-tetraazabenzo[cd]azulene-6-one] | IC50 [1, 6]: 10 to 100 nM
